Assays:
Experiment in all cases: Cysteine liganding, probe competition
Format in all cases: binding
[1] = molecular target: T1, TRIM56 E3 ubiquitin-protein ligase TRIM56 (Homo sapiens, UniProt Q9BRZ2)
T1 construct: Cells were resuspended in cold PBS on ice and sonicated with a probe sonicator to achieve lysis; endogenous in cells
T1 sequence (Q9BRZ2 1-755): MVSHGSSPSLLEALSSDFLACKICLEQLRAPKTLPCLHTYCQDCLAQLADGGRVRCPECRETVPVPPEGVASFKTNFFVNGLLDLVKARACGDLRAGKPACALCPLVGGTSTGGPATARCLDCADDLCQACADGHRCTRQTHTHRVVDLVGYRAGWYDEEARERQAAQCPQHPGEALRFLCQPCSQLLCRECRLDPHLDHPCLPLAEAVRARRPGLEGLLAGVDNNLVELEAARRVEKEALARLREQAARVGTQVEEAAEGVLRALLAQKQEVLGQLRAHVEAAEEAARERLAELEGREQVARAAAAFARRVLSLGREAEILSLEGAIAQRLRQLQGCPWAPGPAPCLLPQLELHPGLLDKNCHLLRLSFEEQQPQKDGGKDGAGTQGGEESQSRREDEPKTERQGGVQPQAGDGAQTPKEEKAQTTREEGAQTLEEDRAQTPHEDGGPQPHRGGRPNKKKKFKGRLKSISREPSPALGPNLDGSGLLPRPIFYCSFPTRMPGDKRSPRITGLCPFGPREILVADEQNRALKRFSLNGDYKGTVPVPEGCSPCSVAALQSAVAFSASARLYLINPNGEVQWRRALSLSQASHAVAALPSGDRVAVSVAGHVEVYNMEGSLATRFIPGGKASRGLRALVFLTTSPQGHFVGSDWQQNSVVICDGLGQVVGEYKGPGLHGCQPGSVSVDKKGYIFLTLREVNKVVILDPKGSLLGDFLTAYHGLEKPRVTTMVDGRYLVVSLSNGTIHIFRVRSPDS
Outline: (§1)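 Read-out is loss of desthiobiotin iodoacetamide labelling at cysteines, measured on streptavidin-enriched tryptic peptides. Compound preincubation ran 1 hr at 25° C in PBS lysate holding 5 mg/ml proteome before the probe was added.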

[2] = molecular target: T2, LGMN Legumain (Homo sapiens, UniProt Q99538); settings: for 100 Max / 100 ave / 500 Max / 500 ave: uniprot Q99538
T2 construct: Cells were resuspended in cold PBS on ice and sonicated with a probe sonicator to achieve lysis; endogenous in cells
T2 sequence (Q99538 18-323): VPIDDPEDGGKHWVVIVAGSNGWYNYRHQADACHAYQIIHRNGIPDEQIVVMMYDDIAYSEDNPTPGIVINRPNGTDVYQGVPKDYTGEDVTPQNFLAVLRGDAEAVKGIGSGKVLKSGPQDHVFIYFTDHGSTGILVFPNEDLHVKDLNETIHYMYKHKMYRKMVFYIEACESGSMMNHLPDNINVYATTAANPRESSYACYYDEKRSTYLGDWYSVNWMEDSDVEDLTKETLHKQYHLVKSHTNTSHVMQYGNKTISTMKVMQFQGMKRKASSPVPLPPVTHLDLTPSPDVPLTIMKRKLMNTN
Outline: as §1

[3] = molecular target: T3, ZNF318 Zinc finger protein 318 (Homo sapiens, UniProt Q5VUA4)
T3 construct: Cells were resuspended in cold PBS on ice and sonicated with a probe sonicator to achieve lysis; endogenous in cells
Outline: as §1

T3 sequence (Q5VUA4 whole entry): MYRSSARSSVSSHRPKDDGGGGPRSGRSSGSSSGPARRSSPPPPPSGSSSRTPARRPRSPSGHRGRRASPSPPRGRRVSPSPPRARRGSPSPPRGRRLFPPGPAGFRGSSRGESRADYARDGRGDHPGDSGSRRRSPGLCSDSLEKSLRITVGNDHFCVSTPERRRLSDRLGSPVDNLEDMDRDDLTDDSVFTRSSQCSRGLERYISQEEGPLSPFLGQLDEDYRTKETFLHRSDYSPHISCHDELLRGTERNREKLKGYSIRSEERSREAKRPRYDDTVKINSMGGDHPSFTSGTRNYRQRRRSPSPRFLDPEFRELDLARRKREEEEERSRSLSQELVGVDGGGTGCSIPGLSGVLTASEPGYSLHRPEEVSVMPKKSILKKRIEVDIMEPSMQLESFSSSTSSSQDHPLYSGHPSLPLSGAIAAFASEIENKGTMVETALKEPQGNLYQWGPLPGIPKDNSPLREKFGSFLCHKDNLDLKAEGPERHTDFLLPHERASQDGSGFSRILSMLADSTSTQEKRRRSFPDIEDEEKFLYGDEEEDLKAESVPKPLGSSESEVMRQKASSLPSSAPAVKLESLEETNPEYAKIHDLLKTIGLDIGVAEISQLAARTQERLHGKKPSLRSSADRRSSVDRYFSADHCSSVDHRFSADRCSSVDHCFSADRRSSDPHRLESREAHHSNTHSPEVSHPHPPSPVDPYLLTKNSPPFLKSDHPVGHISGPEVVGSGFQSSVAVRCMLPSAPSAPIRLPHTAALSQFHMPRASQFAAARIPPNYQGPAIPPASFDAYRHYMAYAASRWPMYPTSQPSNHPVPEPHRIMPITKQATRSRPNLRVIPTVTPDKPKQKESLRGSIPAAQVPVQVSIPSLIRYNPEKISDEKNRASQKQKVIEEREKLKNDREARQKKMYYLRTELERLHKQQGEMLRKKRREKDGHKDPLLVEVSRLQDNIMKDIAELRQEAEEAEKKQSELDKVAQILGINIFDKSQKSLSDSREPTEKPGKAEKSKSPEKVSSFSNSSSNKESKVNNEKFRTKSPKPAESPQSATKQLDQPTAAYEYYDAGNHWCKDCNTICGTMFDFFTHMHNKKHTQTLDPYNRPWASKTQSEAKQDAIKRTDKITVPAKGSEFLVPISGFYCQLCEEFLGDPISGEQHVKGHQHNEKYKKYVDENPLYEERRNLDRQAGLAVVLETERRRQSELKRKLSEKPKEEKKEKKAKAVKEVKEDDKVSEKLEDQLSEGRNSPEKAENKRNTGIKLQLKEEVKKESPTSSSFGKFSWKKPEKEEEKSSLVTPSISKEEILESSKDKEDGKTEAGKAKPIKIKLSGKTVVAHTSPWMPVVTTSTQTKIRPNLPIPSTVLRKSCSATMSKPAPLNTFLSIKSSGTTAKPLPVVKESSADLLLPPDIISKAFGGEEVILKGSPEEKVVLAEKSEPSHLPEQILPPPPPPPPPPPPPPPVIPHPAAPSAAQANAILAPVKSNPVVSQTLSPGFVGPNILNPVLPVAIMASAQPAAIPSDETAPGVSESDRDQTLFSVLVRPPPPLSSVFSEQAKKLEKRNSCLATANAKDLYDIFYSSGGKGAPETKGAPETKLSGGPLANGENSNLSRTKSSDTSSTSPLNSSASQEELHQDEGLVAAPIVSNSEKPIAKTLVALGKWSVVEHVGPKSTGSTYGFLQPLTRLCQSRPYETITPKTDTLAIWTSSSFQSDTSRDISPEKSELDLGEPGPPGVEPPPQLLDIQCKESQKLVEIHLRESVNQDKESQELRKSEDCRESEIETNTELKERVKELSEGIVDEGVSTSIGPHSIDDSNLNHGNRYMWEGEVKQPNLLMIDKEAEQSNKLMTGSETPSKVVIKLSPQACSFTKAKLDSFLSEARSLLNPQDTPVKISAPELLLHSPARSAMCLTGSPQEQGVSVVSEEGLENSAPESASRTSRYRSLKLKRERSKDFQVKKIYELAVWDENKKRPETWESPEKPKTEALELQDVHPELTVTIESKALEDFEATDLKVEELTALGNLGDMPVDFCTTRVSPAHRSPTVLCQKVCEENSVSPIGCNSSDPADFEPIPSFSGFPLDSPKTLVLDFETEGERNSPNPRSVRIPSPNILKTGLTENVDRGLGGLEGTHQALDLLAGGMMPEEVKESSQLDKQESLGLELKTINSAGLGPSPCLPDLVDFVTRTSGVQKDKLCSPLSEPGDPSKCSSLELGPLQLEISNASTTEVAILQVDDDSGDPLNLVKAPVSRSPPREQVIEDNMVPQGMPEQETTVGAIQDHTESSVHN

SMILES	Liganded ([1]; TRIM56 Res# 338, uniprot Q9BRZ2)	Liganded ([2]; LGMN Res# 50, uniprot Q99538)	100 Max [2]	100 ave [2]	500 Max [2]	500 ave [2]	Liganded ([3]; ZNF318 Res# 1681, uniprot Q5VUA4)	KB03_500 uM_percent_inhibition ([1]; 500 uM, UniProt Q9BRZ2) [%]	Liganded ([1]; TRIM56 Res# 36, uniprot Q9BRZ2)	500 Max ([1]; uniprot Q9BRZ2)	500 ave ([1]; uniprot Q9BRZ2)	100 Max ([3]; uniprot Q5VUA4)	100 ave ([3]; uniprot Q5VUA4)	500 Max ([3]; uniprot Q5VUA4)	500 ave ([3]; uniprot Q5VUA4)
COc1ccc2c(c1)CCCN2C(=O)CCl [KB02]	YES	YES	33.6	20.31	78.38	78.38	YES								
O=C(CCl)Nc1cc(C(F)(F)F)cc(C(F)(F)F)c1 [KBO3]			12.45	0.755	60.93	60.93		93	YES	78.3	78.3	−1.63	−8.115	55.07	40.555

From patent US20200239530A1, “COMPOUNDS AND METHODS OF MODULATING PROTEIN DEGRADATION” (Vividion Therapeutics, Inc., priority 2017, published 2020)
